Measurements published in patent publication US10975071B2, “Inhibitors of KRAS G12C mutant proteins” (Araxes Pharma LLC, priority 2015, dated 2021).

Each compound was assayed against T1, KRAS G12C 1-169, his-tagged protein, GDP-loaded (Homo sapiens, UniProt P01116, G12C) (assay: Biochemical assay: covalent binding to KRAS G12C measured by mass spectrometry).
T1 construct: KRAS G12C 1-169, his-tagged protein, GDP-loaded
T1 sequence (P01116 1-169 isoform P01116-2 G12C): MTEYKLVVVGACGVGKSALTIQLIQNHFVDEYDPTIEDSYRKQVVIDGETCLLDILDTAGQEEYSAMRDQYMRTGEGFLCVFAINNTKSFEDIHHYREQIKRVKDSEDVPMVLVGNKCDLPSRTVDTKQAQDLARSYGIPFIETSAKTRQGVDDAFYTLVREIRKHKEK
Protocol: Test compounds are prepared as 10 mM stock solutions in DMSO (Fisher cat# BP-231-100). KRAS G12C 1-169, his-tagged protein, GDP-loaded is diluted to […] in buffer (20 mM Hepes, 150 mM NaCl, 1 mM MgCl2). Compounds are tested for activity as follows:
Compounds are diluted to 50× final test concentration in DMSO in 96-well storage plates. Compound stock solutions are vortexed before use and observed carefully for any sign of precipitation. Dilutions are as follow: • For 100 μM final compound concentration, compounds are diluted to 5000 μM (5 μl 10 mM compound stock +5 μl DMSO and mixed well by pipetting. • For 30 μM final compound concentration, compounds are diluted to 1500 μM (3 μl 10 mM compound stock +17 μl DMSO) and mixed well by pipetting. • For 10 μM final compound concentration, compounds are diluted to 500 μM (2 μl 10 mM compound stock +38 μl DMSO) and mixed well by pipetting. 49 μl of the stock protein solution is added to each well of a 96-well PCR plate (Fisher cat#1423027). […] of the diluted 50× compounds are added to appropriate wells in the PCR plate using 12-channel pipettor. Reactions are mixed carefully and thoroughly by pipetting up/down with a 200 μl multi-channel pipettor. The plate is sealed well with aluminum plate seal, and stored in drawer at room temperature for 24 hrs. 5 μl of 2% formic acid (Fisher cat# Al 117) in DI H2O is then added to each well followed by mixing with a pipette. The plate is then resealed with aluminum seal and stored on dry ice until analyzed as described below.
The above described assays are analyzed by mass spectrometry according to the following procedure:
The MS instrument is set to positive polarity, 2 GHz resolution, and low mass (1700) mode and allowed to equilibrate for 30 minutes. The instrument is then calibrated, switched to acquisition mode and the appropriate method loaded.
After another 30 minute equilibration time, a blank batch (i.e., buffer) is run to ensure equipment is operating properly. The samples are thawed at 37° C. for 10 minutes, briefly centrifuged, and transfer to the bench top. Wells Al and H12 are spiked with 1 uL 500 uM internal standard peptide, and the plates centrifuged at 2000×g for 5 minutes. The method is then run and masses of each individual well recorded.
The masses (for which integration data is desired) for each well are pasted into the platemap and exported from the analysis. Masses for the internal standards are exported as well. The data at 50 ppm is extracted for the +19 charge state, and identity of well Al is assigned using the internal standard spike and integrated. Peak data is exported as a TOF list and the above steps are repeated individually, for the +20, 21, 22, 23, 24, and 25 charge states.
For `C=CC(=O)N1CCN(c2cnc3cc(-c4c(C)ccc5[nH]ncc45)c(Cl)cn23)CC1` [Compound 1, 1-(4-(6-chloro-7-(5-methyl-1H-indazol-4-yl)imidazo[1,2-a]pyridin-3-yl)piperazin-1-yl)prop-2-en-1-one], the Binding % was “++ (++ indicates binding activity greater than 5% and up to 50%)”.
In the case of `C=CC(=O)N1CCN(c2cnc3c(F)c(-c4c(O)cccc4F)c(Cl)cn23)CC1` [Compound 20, 1-(4-(6-chloro-8-fluoro-7-(2-fluoro-6-hydroxyphenyl)imidazo[1,2-a]pyridin-3-yl)piperazin-1-yl)prop-2-en-1-one], the Binding % is reported as “+++ (+++ indicates binding activity 50% or greater)”.
`C=CC(=O)N1CCN(c2c(NC(C)=O)nc3cc(-c4c(F)cccc4OC)c(Cl)cn23)CC1` [Compound 21, N-(3-(4-acryloylpiperazin-1-yl)-6-chloro-7-(2-fluoro-6-methoxyphenyl)imidazo[1,2-a]pyridin-2-yl)acetamide] was tested, and the Binding % was “+ (+ indicates binding activity up to 5)”.
For `C=CC(=O)N1CCN(c2c(NC(C)=O)nc3cc(-c4c(O)cccc4F)c(C)cn23)CC1` [Compound 24, N-(3-(40 acryloylpiperazin-1-yl)-7-(2-fluoro-6-hydroxyphenyl)-6-methylimidazo[1,2-a]pyridin-2-yl)acetamide], the Binding % was “+ (+ indicates binding activity up to 5)”.
With `C=CC(=O)N1CCN(C2=NCC(=O)Nc3c2cc(Cl)c(-c2c(O)cccc2F)c3F)CC1` [Compound 25, 5-(4-acryloylpiperazin-1-yl)-7-chloro-9-fluoro-8-(2-fluoro-6-hydroxyphenyl)-1,3-dihydro-2H-benzo[e][1,4] diazepin-2-one] the Binding % was “+ (+ indicates binding activity up to 5)”.
For `C=CC(=O)N1CCN(C2=COC3C=C(c4c(O)cccc4F)C(Cl)=CC23)CC1` (stereo not drawn) [Compound 26, 1-(4-(5-chloro-6-(2-fluoro-6-hydroxyphenyl)-3a,7a-dihydrobenzofuran-3-yl)piperazin-1-yl)prop-2-en-1-one], the Binding % was “+++ (+++ indicates binding activity 50% or greater)”.
